pIC50: −log10 of the molar value.
Legend:
[1] = test system: HUVECs; assay: Capillary-like tube formation assay (tubulogenesis); type: cell-based, human; conditions: for tubule formation: 6 h; for pIC50: Homo sapiens, HUVEC, endothelial tubule network assay, anti-angiogenic activity, read-out: IC50 value
Procedure, shortened: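 HUVECs seeded on Matrigel (regular or reduced growth factor) in incomplete ECM basal medium, treated with compound for 6 h; VEGF 50 ng/mL positive and sunitinib 50 nM negative controls. Calcein-AM-stained tubules imaged at 10× and tubule length expressed as % of 0.1% DMSO vehicle.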

[2] = test system: HCT116 colon tumor; assay: HCT116 colon tumor model in nude mice; type: in vivo
Description: FIG. 12 represents Compound 1 inhibited tumor growth in vivo. Tumor sizes were recorded every alternate day by Vernier caliper measurements and calculated as [4/3*[…]*(length/2)*(width/2)]. (A) Nude mice with induced HCT116 tumor were given vehicle to the control group, sunitinib at (40 mg/kg) as a standard drug given orally and Compound 1 at (25 mg/kg) through IP route for 21 days and tumor regression was calculated for all groups. (B) Nude Mice with induced HCT116 colon tumor were given both, sunitinib and Compound 1 at (25 mg/kg) intra-muscularly for 15 days after attaining a tumor size of 100 mm^3, tumor volume reduction for treated groups were calculated and compared with control. Data are expressed as means±S.E.M. (6 mice/group) with significant difference compared with control at p<0.0001.
HCT 116 (Human colon cancer cell line) cells were trypsinised and the pellet was dissolved in ice chilled 1×PBS. HCT 116 cells suspension to a concentration of (1*10^6) cells in 50 μL PBS solution, were left on ice with occasional agitation. Mice were anaesthetized with ketamine: xylazine (100:10 mg/kg), abdominal side area was shaved and sterilized using 70% ethanol. 50 μL of cell suspension was injected slowly subcutaneously to all the mice. After 2 days, booster dose of tumor cells was injected to all mice as performed previously. The growth of the tumor was measured by using vernier caliper on day 2, 4, 6, 8, 10, 12, 14, 16 18, 20, 23 and presented in the form of tumor volume (mm^3)=[4/3*π*(long axis/2)*(short axis/2)]. After attaining a volume of 100 mm^3 of tumor size, all mice were distributed equally (n=6−8) in 3 groups of controls received vehicle (Olive oil). Sutent (25 mg/kg) as a positive control was given orally and Compound 1 (25 mg/kg) dissolved in olive oil was injected intra-muscularly for 15 days and the tumor size regression was measured on every alternate day as described previously. Post 15 days of treatment, mice from all groups were sacrificed and tumor was excised out and processed further for immunohistochemistry and molecular analysis.

[3] = test system: chick CAM; assay: CAM (chick chorio-allantoic membrane) assay; type: in vivo; conditions: 2 μM
Description: (A) Chick CAM assays were used to observe the effect of Compound 1 on angiogenesis in vivo. 1 mm^2 window was made in 8 days old chicken eggs to expose the CAM, and a gelatin disc ([…]) treated with vehicle (0.1% DMSO), sunitinib and Compound 1 at a indicated concentrations were placed on the CAM surface. Post 4 days of incubation, the discs and associated CAM were photographed and excised out, for hemoglobin estimation by drapkin's reagent. (B) Blood vessel density was calculated and Hb. concentration was measured and representative graph was plotted for the control and treatment group and data are represented as mean±SEM with significant difference from control at *p<0.05, **p<0.01 and ***p<0.001.
The eggs were incubated horizontally for 3 days at 37° C. in a 60% humidified atmosphere, using a hybridization incubator (combi-SV 12) with one hour scheduled rotation. Post 3 days of incubation, 2-3 mL of albumin was aspirated from the acute pole of the egg to create false air sac directly over the CAM. Post fertilization (Day 8), a fine blade was used to make an approximate 0.5 cc square incision on the eggshell under sterile conditions and the eggshell window fragment was removed to access the CAM beneath. A piece of gelatin sponge embedded in Compound 1 (500 nM and 250 nM) and sunitinib (2 μM) individually were placed on the CAM of the chicken embryo and incubated for 12 days. Sterile parafilm tape was used to seal back the window and the eggs were further incubated without the rotation setting. After 12 days of incubation the CAM integration was assessed by visual inspection and photographed with a digital camera (Canon EOS); the CAM membrane along with gelatin sponge were harvested and its hemoglobin (Hb.) estimation was done by Drabkin's method according to the manufacturer's protocol (Sigma, St. Louis, Mo.). Absorbance was measured at 540 nm and hemoglobin concentration was calculated.

[4] = test system: HUVECs; assay: Wound healing (scratch) migration assay; type: cell-based, human; conditions: 50 ng/mL, positive control
Description: FIG. 4 represents In vitro wound closure assay showing effect of Compound 1 migration of HUVECs. (A) ECs were incubated with 2.5% FBS in the presence of VEGF, sunitinib and Compound 1 at the indicated concentrations for 24 h after linear scratched wounds were created in the confluent cells. Post treatment photographs were taken at 0 hr, 12 h and 24 h using an inverted microscope at 10×magnification. (B) Data were quantified using Image J software and graphs were plotted by calculating the % migration of that vehicle treated cells (control). Compound 1 inhibits the wound closure by ECs in a dose dependent manner. The values represent the mean±SEM from (n=3) independent experiments with significant difference compared from control at *p<0.05.
As per previous reports, some anti-angiogenic compounds also show anti-migratory effect by modulating the expression of proteins responsible for blood vessels formation. A Scratch was made to the confluent endothelial cells containing VEGF (50 ng/mL) and sunitinib (50 nM) as a positive and negative control respectively and Compound 1 at 250 nM and 125 nM as a test compound. […] This might contribute to its potent anti-angiogenic effect.
Endothelial cells were grown inside 6-well plate at a confluency rate of 90%. And then with the help of 200 μL tip a straight line scratch was made in the middle of the grown ECs. After giving a gentle wash with 1×PBS, control group received vehicle in 2.5% FBS media. VEGF at 50 ng/mL as a positive control and sunitinib at 50 nM concentration was used as a negative control. Compound 1 at a dose concentration of 250 nM and 125 nM were used onto the wounded cells to observe its anti-migratory effect. After 0 h, 12 h and 24 h of post treatment the wound closure area was observed and micrographed using an inverted microscope (Olympus, Centre Valley, Pa., USA) and were analysed by Image J software. Control well at 100% was used to express inhibition percentage and the assay was performed for three-five times independently.

Compound: Sunitinib Maleate [reference compound]
- tubule formation ([1]; 20 nM): 40%
- tubule formation ([1]; 50 nM): 25%
- growth of HCT116 cells xenografts ([2]; 25 mg/kg, 15 days): powerful inhibitory effect
- tumor volume ([2]; 40 mg/kg orally for 21 days, vs vehicle): progressive significant decrease in tumor volume
- tumor reduction ([2]; in comparison to vehicle treated control group, end of experiment): 54.58%
- hemoglobin content [3]: 100 µg/mL

Compound: CCOC(=O)C1N=C1/C=C/c1ccc(N(C)C)cc1 (centres unmarked) [Compound 46, Ethyl (E)-3-(4-(dimethylamino)styryl)-2H-azirine-2-carboxylate]
- melting point: 119 to 121 °C
- pIC50 [1]: 6.30

Compound: VEGF [reference compound]
- wound closure [4]: 90%

Compound: CCOC(=O)C1N=C1CCc1ccc(OC)c(OC)c1 (centres unmarked) [Compound 34, Ethyl 3-(3,4-dimethoxyphenethyl)-2H-azirine-2-carboxylate]
- melting point: 55 to 57 °C
- pIC50 [1]: 6.60

— patent US20230234920A1, “Azirine Containing Compounds as Anti-Angiogenesis Agents and a Process for the Preparation Thereof” (COUNCIL OF SCIENTIFIC & INDUSTRIAL RESEARCH, priority 2020, published 2023)
